# Tests used:
# [1] = test system: HBV; assay: anti-HBV activity in vivo in AAV/HBV mice; details: 20 mg/kg
# [2] = cardiovascular safety pharmacology in monkeys; type: in vivo; details: secondary to an increase in body temperature
# Text: (§1) Exposure increased more than dose-proportionally at low doses. Variability in exposure was high. • In vitro plasma protein binding was between 79.6% and 94.2% in animals and humans. Volume of distribution after intravenous dosing was high. […] Main metabolic pathways were oxygenation, hydrogenation, dehydrogenation, dealkylation, acetylation, glucuronidation, and/or glutathione conjugation. • In rats, >80% of drug-related material was found in feces, 11% to 20% in bile, and <4% in urine. […] There were no effects on embryofetal development up to 1 mg/kg/dose in rats and 30 mg/kg/dose in rabbits.
# [3] = Phase 1 multiple dose (Part 2): safety and tolerability in healthy adults; type: in vivo, human; details: 1.25 mg qw fasted
# Experimental: All volunteers were followed up for 4 weeks and safety and tolerability were continuously assessed throughout the study. All adverse events (AEs) were recorded from the time of consent to the completion visit and were graded using the DAIDS toxicity grading scale. Volunteers also underwent physical examinations, electrocardiograms, vital sign checks and clinical laboratory parameters (chemistry, haematology, urinalysis).
# [4] = test system: interferon-stimulated genes (ISGs) and cytokines in peripheral blood; assay: single oral administration in monkeys: tolerability, ISG and cytokine induction; type: in vivo
# Text: as §1
# [5] = target: P-glycoprotein (Homo sapiens, UniProt P08183); assay: in vitro permeability and P-glycoprotein substrate; type: in vitro ADME
# Sequence of P-glycoprotein (P08183 whole entry): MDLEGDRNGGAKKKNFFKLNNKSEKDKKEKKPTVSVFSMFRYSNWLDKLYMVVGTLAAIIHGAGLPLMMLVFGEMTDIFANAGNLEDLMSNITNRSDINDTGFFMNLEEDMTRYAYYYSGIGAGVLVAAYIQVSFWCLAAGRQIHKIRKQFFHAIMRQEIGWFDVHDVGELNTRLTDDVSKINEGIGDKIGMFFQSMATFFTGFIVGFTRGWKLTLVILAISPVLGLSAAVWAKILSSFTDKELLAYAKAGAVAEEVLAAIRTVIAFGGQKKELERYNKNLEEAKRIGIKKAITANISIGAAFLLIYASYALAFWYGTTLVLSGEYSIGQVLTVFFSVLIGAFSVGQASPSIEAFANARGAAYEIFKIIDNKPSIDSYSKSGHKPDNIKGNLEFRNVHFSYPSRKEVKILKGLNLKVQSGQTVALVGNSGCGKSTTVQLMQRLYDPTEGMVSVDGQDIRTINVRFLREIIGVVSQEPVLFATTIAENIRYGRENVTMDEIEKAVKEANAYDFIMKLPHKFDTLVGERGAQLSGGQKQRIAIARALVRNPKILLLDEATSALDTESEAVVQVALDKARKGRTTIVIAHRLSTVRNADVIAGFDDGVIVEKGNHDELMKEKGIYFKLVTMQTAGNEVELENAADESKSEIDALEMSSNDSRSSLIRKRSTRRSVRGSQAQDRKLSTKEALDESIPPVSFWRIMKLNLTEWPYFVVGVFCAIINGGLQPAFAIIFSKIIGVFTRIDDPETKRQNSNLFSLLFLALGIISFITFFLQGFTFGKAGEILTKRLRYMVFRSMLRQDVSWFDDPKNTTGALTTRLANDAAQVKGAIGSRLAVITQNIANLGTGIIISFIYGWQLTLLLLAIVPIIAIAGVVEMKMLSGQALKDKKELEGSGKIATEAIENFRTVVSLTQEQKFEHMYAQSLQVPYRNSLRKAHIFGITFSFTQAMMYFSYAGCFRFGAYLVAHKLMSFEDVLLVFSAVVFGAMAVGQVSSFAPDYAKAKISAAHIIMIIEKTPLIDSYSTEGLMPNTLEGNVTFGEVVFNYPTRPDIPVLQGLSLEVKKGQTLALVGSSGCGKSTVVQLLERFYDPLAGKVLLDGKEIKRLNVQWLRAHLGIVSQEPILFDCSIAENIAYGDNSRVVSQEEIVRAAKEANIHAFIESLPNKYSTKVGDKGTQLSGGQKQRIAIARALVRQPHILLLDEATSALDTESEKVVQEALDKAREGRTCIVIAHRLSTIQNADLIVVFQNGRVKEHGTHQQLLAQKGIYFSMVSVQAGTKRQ
# Text: as §1
# [6] = in vitro permeability and P-glycoprotein substrate; type: in vitro ADME
# Text: as §1
# [7] = embryofetal development in rabbits; type: in vivo
# Text: as §1
smiles,measurement,setting,value
CCCCOc1nc(N)c2[nH]cc(Cc3ccc(CN4CCCC4)cc3)c2n1 [Compound 4],HBsAg seroconversion,[1],in all animals
same,HBsAg serum levels,[1],undetectable
same,time post-treatment reductions in HBsAg levels were sustained,[1],up to 3 weeks
same,heart rate and arterial blood pressure,[2],transient increase in heart rate and arterial blood pressure
same,ECG actual value: Heart rate (bpm) Low,[3],0 n (%)
same,ECG actual value: QTcB (ms) ]450; 480],[3],1 (16.7%) n (%)
same,ECG change from reference: QTcB (ms) >60,[3],1 (16.7%) n (%)
same,ECG change from reference: QTcB (ms) [30; 60],[3],1 (16.7%) n (%)
same,ECG change from reference: QTcF (ms) [30; 60],[3],1 (16.7%) n (%)
same,"lab toxicity: Amylase (U/L), upwards, Grade 1",[3],2 (33.3%) n (%)
same,"lab toxicity: Amylase (U/L), upwards, Grade 2",[3],0 n (%)
same,"lab toxicity: Aspartate aminotransferase (U/L), upwards, Grade 1",[3],1 (16.7%) n (%)
same,"lab toxicity: Aspartate aminotransferase (U/L), upwards, Grade 2",[3],1 (16.7%) n (%)
same,"lab toxicity: Cholesterol (mmol/L), upwards, Grade 1",[3],1 (16.7%) n (%)
same,"lab toxicity: Creatine kinase (U/L), upwards, Grade 3",[3],1 (16.7%) n (%)
same,"lab toxicity: Creatine kinase (U/L), upwards, Grade 4",[3],1 (16.7%) n (%)
same,"lab toxicity: GFR from creatinine adjusted for BSA (mL/s/1.73m^2), downwards, Grade 2",[3],1 (16.7%) n (%)
same,"lab toxicity: Glucose (mmol/L), upwards, Grade 1",[3],4 (66.7%) n (%)
same,"lab toxicity: Glucose (mmol/L), upwards, Grade 2",[3],2 (33.3%) n (%)
same,"lab toxicity: Potassium (mmol/L), upwards, Grade 1",[3],1 (16.7%) n (%)
same,"lab toxicity: Sodium (mmol/L), upwards, Grade 1",[3],0 n (%)
same,"lab toxicity: Triglycerides (mmol/L), upwards, Grade 1",[3],1 (16.7%) n (%)
same,"lab toxicity: Triglycerides (mmol/L), upwards, Grade 2",[3],2 (33.3%) n (%)
same,subjects with at least one AE,[3],6 (100%) n (%)
same,subjects with at least one AE for which any study drug or study was permanently stopped,[3],1 (16.7%) n (%)
same,subjects with at least one AE for which any study drug or study was temporarily stopped,[3],0 n (%)
same,subjects with at least one AE possibly related to any study drug,[3],2 (33.3%) n (%)
same,"subjects with at least one AE possibly, probably or very likely related to any study drug",[3],3 (50.0%) n (%)
same,subjects with at least one AE probably related to any study drug,[3],1 (16.7%) n (%)
same,subjects with at least one AE very likely related to any study drug,[3],1 (16.7%) n (%)
same,subjects with at least one SAE,[3],0 n (%)
same,subjects with at least one fatal AE,[3],0 n (%)
same,subjects with at least one grade 1 AE,[3],5 (83.3%) n (%)
same,subjects with at least one grade 2 AE,[3],1 (16.7%) n (%)
same,subjects with at least one grade 3 or 4 AE,[3],0 n (%)
same,subjects with high values for the monocytes/leukocytes ratio (non-graded),[3],4 (66.7%) n (%)
same,subjects with low erythrocyte count (non-graded),[3],3 (50.0%) n (%)
same,treatment-related AE: Abdominal pain,[3],0 n (%)
same,treatment-related AE: Any AE,[3],3 (50.0%) n (%)
same,treatment-related AE: Arthralgia,[3],1 (16.7%) n (%)
same,treatment-related AE: Dry skin,[3],1 (16.7%) n (%)
same,treatment-related AE: Dyspnoea,[3],1 (16.7%) n (%)
same,treatment-related AE: Eye disorders,[3],1 (16.7%) n (%)
same,treatment-related AE: Gastrointestinal disorders,[3],1 (16.7%) n (%)
same,treatment-related AE: Headache,[3],1 (16.7%) n (%)
same,treatment-related AE: Nausea,[3],1 (16.7%) n (%)
same,treatment-related AE: Nervous system disorders,[3],1 (16.7%) n (%)
same,"treatment-related AE: Respiratory, thoracic and mediastinal disorders",[3],1 (16.7%) n (%)
same,treatment-related AE: Retching,[3],1 (16.7%) n (%)
same,treatment-related AE: Retinal exudates,[3],1 (16.7%) n (%)
same,treatment-related AE: Skin and subcutaneous tissue disorders,[3],1 (16.7%) n (%)
same,vital signs: Respiratory rate (brpm) Grade 1,[3],4 (66.7%) n (%)
same,vital signs: SaO2 (%) 95% to <98%,[3],5 (83.3%) n (%)
same,vital signs: Standing DBP (mmHg) Grade 1,[3],2 (33.3%) n (%)
same,vital signs: Standing DBP (mmHg) Grade 2,[3],2 (33.3%) n (%)
same,vital signs: Standing DBP (mmHg) Grade 3,[3],2 (33.3%) n (%)
same,vital signs: Standing SBP (mmHg) Grade 1,[3],3 (50.0%) n (%)
same,vital signs: Standing SBP (mmHg) Grade 2,[3],0 n (%)
same,vital signs: Standing SBP (mmHg) Low,[3],2 (33.3%) n (%)
same,vital signs: Standing pulse (bpm) High,[3],3 (50.0%) n (%)
same,vital signs: Supine DBP (mmHg) Grade 1,[3],2 (33.3%) n (%)
same,vital signs: Supine SBP (mmHg) Grade 1,[3],1 (16.7%) n (%)
same,vital signs: Supine SBP (mmHg) Low,[3],0 n (%)
same,vital signs: Supine pulse (bpm) Low,[3],1 (16.7%) n (%)
same,"lab toxicity: LDL cholesterol (mmol/L, direct), upwards, Grade 1",[3]; n = 1 with data,1 (100.0%) n (%)
same,"lab toxicity: Pancreatic amylase (U/L), upwards, Grade 1",[3]; n = 2 with data,1 (50.0%) n (%)
same,"cytokine induction (IFN-α, IP-10, IL-1 RA, MCP-1)",[4]; 0.6 mg/kg,induction of 4 of the 14 cytokines tested
same,cytokine induction,[4]; 0.1 and 0.15 mg/kg,only increases in IP-10 were detected
same,"ISG15, MX1 and OAS1 in peripheral blood","[4]; each dose, 12-24 hours postdose",increase in all 3 major interferon-stimulated genes
same,dose for which the LEC was observed (minimal target engagement),"[4]; monkey, in vivo",0.1 mg/kg
same,tolerability,"[4]; single oral 0.05, 0.1, 0.15 and 0.6 mg/kg",well tolerated
same,P-glycoprotein substrate,[5],P-glycoprotein substrate
same,in vitro permeability,[6],low
same,dose without effects on embryofetal development,[7],≤ 30 mg/kg/dose
